Source: PubChem BioAssay (NCI)
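In this assay, cells in 96-well plates receive the compound at five concentrations for 48 hours. Endpoints are linearly interpolated between the surrounding concentrations. TGI is the concentration that stops growth completely.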

What was measured:
Experiment in all cases: NCI-60 cell line screen, 48 h
XF 498 CNS = system: XF 498 CNS
LXFL 529 NSCLC = system: LXFL 529 NSCLC
SNB-78 CNS = system: SNB-78 CNS
DMS 273 small cell lung = system: DMS 273 small cell lung
M19-MEL melanoma = system: M19-MEL melanoma
KM20L2 colon = system: KM20L2 colon
DMS 114 small cell lung = system: DMS 114 small cell lung
DLD-1 colon = system: DLD-1 colon
RXF-631 renal = system: RXF-631 renal

CC(C)=CC1C[C@H](C2CC=C3C2(C)CCC2[C@@]3(C)C(=O)CC3[C@]2(C)C=CC(=O)[C@]3(C)CO)CO1 (some centres undefined)
TGI (XF 498 CNS): 12.9 µM | TGI (LXFL 529 NSCLC): 12.1 µM | TGI (SNB-78 CNS): 48.4 µM | TGI (DMS 273 small cell lung): 18.4 µM | TGI (M19-MEL melanoma): 16.7 µM | TGI (KM20L2 colon): 19.1 µM | TGI (DMS 114 small cell lung): 15.9 µM

NCCCOc1ccc([N+](=O)[O-])cc1Cl
TGI (DLD-1 colon): > 100 µM | TGI (XF 498 CNS): > 100 µM | TGI (LXFL 529 NSCLC): > 100 µM | TGI (DMS 273 small cell lung): > 100 µM | TGI (M19-MEL melanoma): > 100 µM | TGI (KM20L2 colon): > 100 µM | TGI (DMS 114 small cell lung): > 100 µM

CN(Cc1ccccc1)C(=NC#N)N(Cc1ccccc1)Cc1ccccc1
TGI (DLD-1 colon): > 100 µM | TGI (LXFL 529 NSCLC): 70.2 µM | TGI (SNB-78 CNS): 77.1 µM | TGI (DMS 273 small cell lung): 41.8 µM | TGI (M19-MEL melanoma): 54.4 µM | TGI (KM20L2 colon): 56.2 µM

Cc1c2ccncc2c(C)c2c1[nH]c1ccc(OC(C)C)cc12
TGI (DLD-1 colon): 3.13 µM | TGI (XF 498 CNS): 2.91 µM | TGI (LXFL 529 NSCLC): 2.1 µM | TGI (SNB-78 CNS): 6.05 µM | TGI (DMS 273 small cell lung): 2.07 µM | TGI (M19-MEL melanoma): 3.42 µM | TGI (KM20L2 colon): 2.59 µM | TGI (DMS 114 small cell lung): 3.24 µM

O=c1cc(-c2ccccc2)c2ccccc2[nH]1
TGI (DLD-1 colon): > 100 µM | TGI (LXFL 529 NSCLC): > 100 µM | TGI (DMS 273 small cell lung): > 100 µM | TGI (M19-MEL melanoma): > 100 µM | TGI (DMS 114 small cell lung): 51.4 µM

C/C(N=NS(=O)(=O)c1ccccc1)=C1\C=CC=CN1O
TGI (DLD-1 colon): > 100 µM | TGI (XF 498 CNS): > 100 µM | TGI (LXFL 529 NSCLC): > 100 µM | TGI (RXF-631 renal): > 100 µM | TGI (SNB-78 CNS): > 100 µM | TGI (DMS 273 small cell lung): > 100 µM | TGI (M19-MEL melanoma): > 100 µM | TGI (KM20L2 colon): > 100 µM | TGI (DMS 114 small cell lung): > 100 µM

[N-]=[N+]=NC(CCl)c1cn([C@H]2C[C@H](O)[C@@H](CO)O2)c(=O)[nH]c1=O (some centres undefined)
TGI (DLD-1 colon): > 100 µM | TGI (LXFL 529 NSCLC): > 100 µM | TGI (SNB-78 CNS): > 100 µM | TGI (DMS 273 small cell lung): > 100 µM | TGI (M19-MEL melanoma): > 100 µM | TGI (KM20L2 colon): > 100 µM | TGI (DMS 114 small cell lung): > 100 µM

BrC1=CCC23CC=C(Br)[C@H]4CC2(COC3)C[C@@H]1O4 (some centres undefined)
TGI (XF 498 CNS): > 100 µM | TGI (LXFL 529 NSCLC): > 100 µM | TGI (SNB-78 CNS): 93.6 µM | TGI (DMS 273 small cell lung): > 100 µM | TGI (M19-MEL melanoma): > 100 µM | TGI (KM20L2 colon): > 100 µM | TGI (DMS 114 small cell lung): > 100 µM

CS(=O)(=O)OC1CCC2(C#N)CCC1C2=O (centres undefined)
TGI (DLD-1 colon): > 100 µM | TGI (XF 498 CNS): > 100 µM | TGI (LXFL 529 NSCLC): > 100 µM | TGI (RXF-631 renal): > 100 µM | TGI (SNB-78 CNS): > 100 µM | TGI (DMS 273 small cell lung): > 100 µM | TGI (M19-MEL melanoma): > 100 µM | TGI (KM20L2 colon): > 100 µM
